Experiments:
[1] = molecular target: T1, human IR-B (Homo sapiens, UniProt P06213); test: cell-based
T1 construct: expressed in transfected cells; host or cells: NIH 3T3 mouse fibroblasts overexpressing human IR-B (puromycin selection)

[2] = molecular target: hIR (Homo sapiens, UniProt P06213); test: hIR activation / insulin signalling activation by DOI analogues and venom insulins (Example 11, FIGS. 22-27); type: cell-based
[3] = relative to insulin; Bao et al. 1997; cited from earlier work
[4] = molecular target: T2, human IR (isoform B) (Homo sapiens, UniProt P06213); test: biochemical; type: binding
T2 construct: expressed in transfected cells; host or cells: R- IR-B cells, lysed with Triton X-100 and captured with anti-IR antibody 83-7; This comes from the general description of the Denley et al. 2004 format

[5] = tested on: fish; test: Effect on fish (injection or presence in the water); type: in vivo

hIns[TyrB15, TyrB20, DOI]: des-octapeptide human insulin with Tyr at B15 and B20
activity in Akt phosphorylation assay relative to hIns[DOI] [1]: ca five-fold more active

quadruple DOI mutant: DOI analogue with A8 His, A9 Arg, B10 Glu and B20 Tyr; A chain SEQ ID NO: 39, B chain SEQ ID NO: 30
potency in hIR activation, comparison in words [2]: comparable to that of human insulin

DOI: monomeric analogue lacking residues 23 to 30 of the B chain of human insulin [reference compound]
bioactivity preserved [3]: less than 0.1% | potency in hIR activation, comparison in words [2]: same | potency relative to human insulin (fold weaker) ([2]; relative to human insulin): 1,000 fold

CC[C@H](C)[C@@H]1NC(=O)[C@H](CC(C(=O)O)C(=O)O)NC(=O)[C@H](CO)NC(=O)CNC(=O)[C@@H](NC(=O)[C@H](CCCNC(=N)N)NC(=O)[C@H](Cc2c[nH]cn2)NC(=O)[C@H](CCCCN)NC(=O)[C@@H]2C[C@@H](O)CN2C(=O)[C@@H](NC(=O)[C@H](CC(=O)O)NC(=O)[C@H](Cc2ccccc2)NC(=O)[C@@H](N)[C@@H](C)O)[C@@H](C)O)CSSC[C@@H]2NC(=O)[C@@H](NC(=O)[C@H](Cc3c[nH]cn3)NC(=O)[C@H](CC(C(=O)O)C(=O)O)NC(=O)[C@@H](NC(=O)[C@@H](NC(=O)CN)C(C)C)C(C)C)C[Se][Se]C[C@H](NC(=O)[C@@H]3CCCN3C(=O)[C@H](CCCNC(=N)N)NC(=O)[C@H](Cc3c[nH]cn3)NC2=O)C(=O)N[C@@H](CO)C(=O)N[C@@H](CC(N)=O)C(=O)N[C@@H](C)C(=O)N[C@@H](CCC(=O)O)C(=O)N[C@@H](Cc2ccccc2)C(=O)N[C@@H](CCCCN)C(=O)N[C@@H](CCCCN)C(=O)N[C@@H](Cc2ccc(O)cc2)C(=O)N[C@H](C(N)=O)CSSC[C@@H](C(=O)N[C@@H](Cc2ccc(O)cc2)C(=O)N[C@@H](CCCNC(=N)N)C(=O)O)NC(=O)[C@H](CC(C)C)NC(=O)[C@H](CC(=O)O)NC(=O)[C@H](CCSC)NC(=O)[C@H](Cc2ccc(O)cc2)NC(=O)[C@H](CO)NC(=O)[C@H](CC(N)=O)NC(=O)[C@H]([C@@H](C)O)NC1=O [sCon-Ins G1]
IC50 [4]: 17.4 nM | activity / affinity at human IR relative to human insulin (fold less) [4]: thirty-fold less active | activity against the human IR-B relative to PTM-free analogue [4]: four times more active | EC50 [1]: 7.94 nM | efficiency of inducing Akt phosphorylation relative to PTM-free analogue [1]: eight-fold greater efficiency | hypoglycemic effect in fish ([5]; injected into fish): induces hypoglycemic shock | effect on fish motility ([5]; present in the water): slows fish motility
